Assay results published in PMC5078040 (Oncotarget, 2016).

Experiments:
FES = molecular target: T1, FES (Homo sapiens, UniProt P07332); assay: KinomeScan; type: binding; conditions: 1uM
T1 construct: purchased DiscoveRx KINOMEscan

MST2 = molecular target: T2, MST2 (Homo sapiens, UniProt Q13188); assay: KinomeScan; type: binding; conditions: 1uM
T2 construct: purchased DiscoveRx KINOMEscan

FGR = molecular target: T3, FGR (Homo sapiens, UniProt P09769); assay: KinomeScan; type: binding; conditions: 1uM
T3 construct: purchased DiscoveRx KINOMEscan

MERTK = molecular target: T4, MERTK (Homo sapiens, UniProt Q12866); assay: KinomeScan; type: binding; conditions: 1uM
T4 construct: purchased DiscoveRx KINOMEscan

SRPK2 = molecular target: T5, SRPK2 (Homo sapiens, UniProt P78362); assay: KinomeScan; type: binding; conditions: 1uM
T5 construct: purchased DiscoveRx KINOMEscan

TEC = molecular target: T6, TEC (Homo sapiens, UniProt P42680); assay: KinomeScan; type: binding; conditions: 1uM
T6 construct: purchased DiscoveRx KINOMEscan

SRC = molecular target: T7, SRC (Homo sapiens, UniProt P12931); assay: KinomeScan; type: binding; conditions: 1uM
T7 construct: purchased DiscoveRx KINOMEscan

PIK3CA(I800L) = molecular target: T8, PIK3CA(I800L) (Homo sapiens, UniProt P42336, I800L); assay: KinomeScan; type: binding; conditions: 1uM
T8 construct: purchased DiscoveRx KINOMEscan

DRAK1 = molecular target: T9, DRAK1 (Homo sapiens, UniProt Q9UEE5); assay: KinomeScan; type: binding; conditions: 1uM
T9 construct: purchased DiscoveRx KINOMEscan

MLK1 = molecular target: T10, MLK1 (Homo sapiens, UniProt P80192); assay: KinomeScan; type: binding; conditions: 1uM
T10 construct: purchased DiscoveRx KINOMEscan

PCTK1 = molecular target: T11, PCTK1 (Homo sapiens, UniProt Q00536); assay: KinomeScan; type: binding; conditions: 1uM
T11 construct: purchased DiscoveRx KINOMEscan

YANK3 = molecular target: T12, YANK3 (Homo sapiens, UniProt Q86UX6); assay: KinomeScan; type: binding; conditions: 1uM
T12 construct: purchased DiscoveRx KINOMEscan

MELK = molecular target: T13, MELK (Homo sapiens, UniProt Q14680); assay: KinomeScan; type: binding; conditions: 1uM
T13 construct: purchased DiscoveRx KINOMEscan

CDC2L1 = molecular target: T14, CDC2L1 (Homo sapiens, UniProt P21127); assay: KinomeScan; type: binding; conditions: 1uM
T14 construct: purchased DiscoveRx KINOMEscan

[1] = molecular target: T15, ABL1(Q252H)-phosphorylated (Homo sapiens, UniProt P00519, Q252H); assay: KinomeScan; type: binding; conditions: 1uM
T15 construct: purchased DiscoveRx KINOMEscan

VRK2 = molecular target: T16, VRK2 (Homo sapiens, UniProt Q86Y07); assay: KinomeScan; type: binding; conditions: 1uM
T16 construct: purchased DiscoveRx KINOMEscan

MAP3K15 = molecular target: T17, MAP3K15 (Homo sapiens, UniProt Q6ZN16); assay: KinomeScan; type: binding; conditions: 1uM
T17 construct: purchased DiscoveRx KINOMEscan

NDR1 = molecular target: T18, NDR1 (Homo sapiens, UniProt Q15208); assay: KinomeScan; type: binding; conditions: 1uM
T18 construct: purchased DiscoveRx KINOMEscan

ASK1 = molecular target: T19, ASK1 (Homo sapiens, UniProt Q99683); assay: KinomeScan; type: binding; conditions: 1uM
T19 construct: purchased DiscoveRx KINOMEscan

KIT(L576P) = molecular target: T20, KIT(L576P) (Homo sapiens, UniProt P10721, L576P); assay: KinomeScan; type: binding; conditions: 1uM
T20 construct: purchased DiscoveRx KINOMEscan

ABL2 = molecular target: T21, ABL2 (Homo sapiens, UniProt P42684); assay: KinomeScan; type: binding; conditions: 1uM
T21 construct: purchased DiscoveRx KINOMEscan

PIK3C2A = molecular target: T22, PIK3C2A (Homo sapiens, UniProt O00443); assay: ADP-glo biochemical assay
T22 construct: purchased Invitrogen
Experimental: The reaction in each tube was started immediately by adding ATP and kept going for an hour under 37°C. After the tube cooled for 5 minutes at room temperature, 5 μL solvent reactions were carried out in a 384-well plate. Then 5 μL of ADP-Glo™ reagent was added into each well to stop the reaction and consume the remaining ADP within 40 minutes. At the end, 10 μL of kinase detection reagent was added into the well and incubated for 30 minutes to produce a luminescence signal. Luminescence signal was measured with an automated plate reader (Perkin-Elmer Envision) and each measurement was performed in triplicate.

NIM1 = molecular target: T23, NIM1 (Homo sapiens, UniProt Q8IY84); assay: KinomeScan; type: binding; conditions: 1uM
T23 construct: purchased DiscoveRx KINOMEscan

PI3Kα = molecular target: T24, PI3Kα (Mus musculus, UniProt P42337); assay: PI3Ks isoform in cell EC50 assay (AKT phosphorylation, Western Blotting); type: cell-based; conditions: NIH-3T3, 20ng/ml PDGF-BB, read-out: cellular EC50 PI3K Alpha
T24 construct: endogenous in cells; host or cells: NIH-3T3

PIK3CA(C420R) = molecular target: T25, PIK3CA(C420R) (Homo sapiens, UniProt P42336, C420R); assay: KinomeScan; type: binding; conditions: 1uM
T25 construct: purchased DiscoveRx KINOMEscan

ERBB2 = molecular target: T26, ERBB2 (Homo sapiens, UniProt P04626); assay: KinomeScan; type: binding; conditions: 1uM
T26 construct: purchased DiscoveRx KINOMEscan

SgK110 = molecular target: T27, SgK110 (Homo sapiens, UniProt P0C264); assay: KinomeScan; type: binding; conditions: 1uM
T27 construct: purchased DiscoveRx KINOMEscan

EPHA2 = molecular target: T28, EPHA2 (Homo sapiens, UniProt P29317); assay: KinomeScan; type: binding; conditions: 1uM
T28 construct: purchased DiscoveRx KINOMEscan

CDC2L2 = molecular target: T29, CDC2L2 (Homo sapiens, UniProt Q9UQ88); assay: KinomeScan; type: binding; conditions: 1uM
T29 construct: purchased DiscoveRx KINOMEscan

LKB1 = molecular target: T30, LKB1 (Homo sapiens, UniProt Q15831); assay: KinomeScan; type: binding; conditions: 1uM
T30 construct: purchased DiscoveRx KINOMEscan

[2] = molecular target: T31, RSK3(Kin.Dom.1-N-terminal) (Homo sapiens, UniProt Q15349); assay: KinomeScan; type: binding; conditions: 1uM
T31 construct: RSK3(Kin.Dom.1-N-terminal); purchased DiscoveRx KINOMEscan

TNNI3K = molecular target: T32, TNNI3K (Homo sapiens, UniProt Q59H18); assay: KinomeScan; type: binding; conditions: 1uM
T32 construct: purchased DiscoveRx KINOMEscan

AURKA = molecular target: T33, AURKA (Homo sapiens, UniProt O14965); assay: KinomeScan; type: binding; conditions: 1uM
T33 construct: purchased DiscoveRx KINOMEscan

PIP5K1A = molecular target: T34, PIP5K1A (Homo sapiens, UniProt Q99755); assay: KinomeScan; type: binding; conditions: 1uM
T34 construct: purchased DiscoveRx KINOMEscan

MTOR = molecular target: T35, MTOR (Homo sapiens, UniProt P42345); assay: KinomeScan; type: binding; conditions: 1uM
T35 construct: purchased DiscoveRx KINOMEscan

PIK3CA(E545K) = molecular target: T36, PIK3CA(E545K) (Homo sapiens, UniProt P42336, E545K); assay: KinomeScan; type: binding; conditions: 1uM
T36 construct: purchased DiscoveRx KINOMEscan

DAPK2 = molecular target: T37, DAPK2 (Homo sapiens, UniProt Q9UIK4); assay: KinomeScan; type: binding; conditions: 1uM
T37 construct: purchased DiscoveRx KINOMEscan

EPHA3 = molecular target: T38, EPHA3 (Homo sapiens, UniProt P29320); assay: KinomeScan; type: binding; conditions: 1uM
T38 construct: purchased DiscoveRx KINOMEscan

CAMK1G = molecular target: T39, CAMK1G (Homo sapiens, UniProt Q96NX5); assay: KinomeScan; type: binding; conditions: 1uM
T39 construct: purchased DiscoveRx KINOMEscan

PKN1 = molecular target: T40, PKN1 (Homo sapiens, UniProt Q16512); assay: KinomeScan; type: binding; conditions: 1uM
T40 construct: purchased DiscoveRx KINOMEscan

CTK = molecular target: T41, CTK (Homo sapiens, UniProt P42679); assay: KinomeScan; type: binding; conditions: 1uM
T41 construct: purchased DiscoveRx KINOMEscan

MYLK = molecular target: T42, MYLK (Homo sapiens, UniProt Q15746); assay: KinomeScan; type: binding; conditions: 1uM
T42 construct: purchased DiscoveRx KINOMEscan

T7 sequence (P12931 whole entry): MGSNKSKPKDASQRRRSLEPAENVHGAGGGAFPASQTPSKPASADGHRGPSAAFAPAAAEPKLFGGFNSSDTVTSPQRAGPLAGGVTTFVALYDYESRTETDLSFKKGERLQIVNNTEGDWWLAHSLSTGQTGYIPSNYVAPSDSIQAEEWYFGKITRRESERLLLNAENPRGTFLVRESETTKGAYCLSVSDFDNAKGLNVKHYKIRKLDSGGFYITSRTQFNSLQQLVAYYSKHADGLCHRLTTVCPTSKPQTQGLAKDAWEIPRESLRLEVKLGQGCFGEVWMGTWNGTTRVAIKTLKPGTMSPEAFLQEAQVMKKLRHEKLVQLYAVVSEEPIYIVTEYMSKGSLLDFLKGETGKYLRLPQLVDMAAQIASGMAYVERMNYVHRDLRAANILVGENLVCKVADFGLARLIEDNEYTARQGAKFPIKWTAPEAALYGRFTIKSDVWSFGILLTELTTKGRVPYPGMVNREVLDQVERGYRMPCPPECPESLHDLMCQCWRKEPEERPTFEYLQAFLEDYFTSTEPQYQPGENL
T16 sequence (Q86Y07 whole entry): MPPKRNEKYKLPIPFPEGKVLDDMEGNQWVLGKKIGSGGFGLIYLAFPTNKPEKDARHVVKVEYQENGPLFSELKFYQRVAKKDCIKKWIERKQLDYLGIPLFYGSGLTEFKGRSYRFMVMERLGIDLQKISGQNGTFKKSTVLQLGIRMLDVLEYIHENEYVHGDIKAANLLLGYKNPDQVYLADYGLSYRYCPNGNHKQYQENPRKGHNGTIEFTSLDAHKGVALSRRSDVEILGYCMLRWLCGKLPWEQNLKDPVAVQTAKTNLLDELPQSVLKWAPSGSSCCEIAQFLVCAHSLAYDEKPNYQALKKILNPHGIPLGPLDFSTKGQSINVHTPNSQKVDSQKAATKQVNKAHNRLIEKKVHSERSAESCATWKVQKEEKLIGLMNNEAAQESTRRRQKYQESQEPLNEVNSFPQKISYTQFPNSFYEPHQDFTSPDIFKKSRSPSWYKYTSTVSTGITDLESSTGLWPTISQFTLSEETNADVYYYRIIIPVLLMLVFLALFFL
T3 sequence (P09769 whole entry): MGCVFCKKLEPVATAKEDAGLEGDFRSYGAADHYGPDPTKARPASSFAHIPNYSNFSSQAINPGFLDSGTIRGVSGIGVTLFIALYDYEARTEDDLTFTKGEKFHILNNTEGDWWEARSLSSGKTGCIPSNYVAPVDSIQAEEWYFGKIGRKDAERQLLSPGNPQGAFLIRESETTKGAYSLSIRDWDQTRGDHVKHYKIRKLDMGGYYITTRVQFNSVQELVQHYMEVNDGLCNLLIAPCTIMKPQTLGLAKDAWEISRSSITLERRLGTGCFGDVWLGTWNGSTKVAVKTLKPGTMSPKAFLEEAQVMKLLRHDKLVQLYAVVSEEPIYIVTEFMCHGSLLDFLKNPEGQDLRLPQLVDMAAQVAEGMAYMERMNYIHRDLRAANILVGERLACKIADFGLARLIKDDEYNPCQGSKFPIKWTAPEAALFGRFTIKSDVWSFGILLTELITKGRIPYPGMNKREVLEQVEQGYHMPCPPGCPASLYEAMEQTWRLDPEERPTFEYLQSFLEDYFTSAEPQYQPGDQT
T25 sequence (P42336 whole entry C420R): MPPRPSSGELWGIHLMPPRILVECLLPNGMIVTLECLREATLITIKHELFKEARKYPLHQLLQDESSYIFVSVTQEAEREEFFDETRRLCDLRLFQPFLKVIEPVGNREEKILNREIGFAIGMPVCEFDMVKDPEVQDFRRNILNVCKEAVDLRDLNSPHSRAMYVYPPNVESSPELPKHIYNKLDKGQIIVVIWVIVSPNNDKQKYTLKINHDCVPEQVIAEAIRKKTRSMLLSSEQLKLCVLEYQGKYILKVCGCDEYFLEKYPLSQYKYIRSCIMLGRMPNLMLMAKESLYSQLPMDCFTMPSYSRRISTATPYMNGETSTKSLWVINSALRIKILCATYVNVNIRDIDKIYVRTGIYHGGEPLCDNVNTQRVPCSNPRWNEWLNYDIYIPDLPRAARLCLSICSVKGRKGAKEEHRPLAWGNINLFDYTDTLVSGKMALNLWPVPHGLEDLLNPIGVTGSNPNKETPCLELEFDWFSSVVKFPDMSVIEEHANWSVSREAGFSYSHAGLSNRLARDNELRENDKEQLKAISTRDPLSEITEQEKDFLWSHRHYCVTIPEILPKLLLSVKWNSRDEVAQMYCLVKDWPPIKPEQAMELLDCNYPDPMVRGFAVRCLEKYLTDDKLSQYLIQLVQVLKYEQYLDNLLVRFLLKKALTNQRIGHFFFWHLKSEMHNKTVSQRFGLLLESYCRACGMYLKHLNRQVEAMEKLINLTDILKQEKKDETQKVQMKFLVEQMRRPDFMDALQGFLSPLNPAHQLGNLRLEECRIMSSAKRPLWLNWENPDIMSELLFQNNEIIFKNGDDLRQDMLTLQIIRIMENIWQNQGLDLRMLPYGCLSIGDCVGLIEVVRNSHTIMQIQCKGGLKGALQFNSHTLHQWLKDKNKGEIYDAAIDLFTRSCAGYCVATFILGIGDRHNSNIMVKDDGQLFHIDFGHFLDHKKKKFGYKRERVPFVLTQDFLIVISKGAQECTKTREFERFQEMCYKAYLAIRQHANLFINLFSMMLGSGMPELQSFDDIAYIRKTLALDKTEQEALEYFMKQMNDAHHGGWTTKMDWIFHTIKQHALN
T13 sequence (Q14680 whole entry): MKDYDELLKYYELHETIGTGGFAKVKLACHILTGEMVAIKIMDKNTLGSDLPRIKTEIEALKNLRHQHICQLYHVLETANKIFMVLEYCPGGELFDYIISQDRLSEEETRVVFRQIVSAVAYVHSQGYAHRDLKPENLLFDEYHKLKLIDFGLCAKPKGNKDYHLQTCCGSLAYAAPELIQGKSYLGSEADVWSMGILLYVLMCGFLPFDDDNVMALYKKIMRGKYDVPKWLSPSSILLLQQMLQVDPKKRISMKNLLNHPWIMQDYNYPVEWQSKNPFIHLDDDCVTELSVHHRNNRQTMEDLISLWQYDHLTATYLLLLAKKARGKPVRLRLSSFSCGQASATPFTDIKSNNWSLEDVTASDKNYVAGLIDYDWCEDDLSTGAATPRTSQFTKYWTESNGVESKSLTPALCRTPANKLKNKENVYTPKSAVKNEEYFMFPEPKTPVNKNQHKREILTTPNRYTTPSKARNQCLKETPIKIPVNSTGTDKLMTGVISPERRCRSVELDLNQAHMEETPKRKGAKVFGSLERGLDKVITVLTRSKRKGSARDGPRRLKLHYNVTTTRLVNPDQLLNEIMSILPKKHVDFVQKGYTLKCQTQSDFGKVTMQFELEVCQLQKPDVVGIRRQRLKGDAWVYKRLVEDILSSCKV
T39 sequence (Q96NX5 whole entry): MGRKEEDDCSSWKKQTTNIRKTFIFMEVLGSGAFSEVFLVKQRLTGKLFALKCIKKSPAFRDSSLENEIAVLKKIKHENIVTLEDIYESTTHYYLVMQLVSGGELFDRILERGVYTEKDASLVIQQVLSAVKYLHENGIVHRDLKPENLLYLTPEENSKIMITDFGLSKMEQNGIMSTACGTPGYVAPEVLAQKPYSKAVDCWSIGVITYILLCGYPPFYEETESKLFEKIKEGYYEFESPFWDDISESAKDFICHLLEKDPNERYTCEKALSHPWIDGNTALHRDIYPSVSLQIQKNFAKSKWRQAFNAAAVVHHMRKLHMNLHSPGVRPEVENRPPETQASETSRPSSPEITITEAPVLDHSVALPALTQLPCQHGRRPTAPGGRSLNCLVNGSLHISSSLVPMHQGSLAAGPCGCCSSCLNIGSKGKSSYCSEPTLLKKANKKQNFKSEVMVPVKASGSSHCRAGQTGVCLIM
T23 sequence (Q8IY84 whole entry): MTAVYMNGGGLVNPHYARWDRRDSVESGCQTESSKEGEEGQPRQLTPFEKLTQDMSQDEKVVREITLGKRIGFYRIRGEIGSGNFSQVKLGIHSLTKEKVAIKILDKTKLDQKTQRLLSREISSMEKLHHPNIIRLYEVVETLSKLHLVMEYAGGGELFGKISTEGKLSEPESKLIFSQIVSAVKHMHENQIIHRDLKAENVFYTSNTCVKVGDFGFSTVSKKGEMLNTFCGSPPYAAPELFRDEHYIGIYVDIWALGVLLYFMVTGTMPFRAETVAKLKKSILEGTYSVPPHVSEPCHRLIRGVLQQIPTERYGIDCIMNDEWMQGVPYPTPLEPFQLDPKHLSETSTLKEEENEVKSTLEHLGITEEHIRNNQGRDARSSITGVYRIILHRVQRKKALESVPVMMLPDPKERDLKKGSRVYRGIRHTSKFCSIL
T1 sequence (P07332 whole entry): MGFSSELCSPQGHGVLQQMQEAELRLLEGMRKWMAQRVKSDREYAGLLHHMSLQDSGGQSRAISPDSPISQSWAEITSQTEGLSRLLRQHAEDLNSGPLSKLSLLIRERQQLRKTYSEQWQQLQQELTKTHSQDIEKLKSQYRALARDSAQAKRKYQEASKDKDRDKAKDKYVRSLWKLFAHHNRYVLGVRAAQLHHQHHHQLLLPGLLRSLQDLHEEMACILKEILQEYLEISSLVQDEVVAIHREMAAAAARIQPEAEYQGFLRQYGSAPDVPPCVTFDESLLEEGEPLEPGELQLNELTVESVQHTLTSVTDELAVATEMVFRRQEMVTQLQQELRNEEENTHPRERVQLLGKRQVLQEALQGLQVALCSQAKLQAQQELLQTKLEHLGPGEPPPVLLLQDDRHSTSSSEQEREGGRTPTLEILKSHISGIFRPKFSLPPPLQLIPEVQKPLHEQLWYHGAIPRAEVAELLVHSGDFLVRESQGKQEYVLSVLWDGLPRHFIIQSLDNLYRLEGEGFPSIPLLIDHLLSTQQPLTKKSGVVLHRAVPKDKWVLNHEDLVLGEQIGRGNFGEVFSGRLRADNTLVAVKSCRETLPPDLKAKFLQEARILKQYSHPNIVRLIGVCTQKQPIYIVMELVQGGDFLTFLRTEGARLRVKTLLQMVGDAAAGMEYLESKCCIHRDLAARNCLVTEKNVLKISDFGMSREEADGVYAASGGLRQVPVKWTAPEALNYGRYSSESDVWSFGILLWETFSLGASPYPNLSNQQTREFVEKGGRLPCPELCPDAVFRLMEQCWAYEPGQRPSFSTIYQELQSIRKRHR

SMILES: Cc1nc(NC(=O)[C@@H](N)C(C)C)sc1-c1cnc(Cl)c(NS(=O)(=O)c2ccccc2)c1 [PI3KD-IN-015]
- KinomeScan FES (FES): 100
- KinomeScan MST2 (MST2): 87
- KinomeScan FGR (FGR): 100
- KinomeScan MERTK (MERTK): 96
- KinomeScan SRPK2 (SRPK2): 100
- KinomeScan TEC (TEC): 100
- KinomeScan SRC (SRC): 91
- KinomeScan PIK3CA(I800L) (PIK3CA(I800L)): 0.5
- KinomeScan DRAK1 (DRAK1): 91
- KinomeScan MLK1 (MLK1): 100
- KinomeScan PCTK1 (PCTK1): 93
- KinomeScan YANK3 (YANK3): 97
- KinomeScan MELK (MELK): 90
- KinomeScan CDC2L1 (CDC2L1): 100
- KinomeScan ABL1(Q252H)-phosphorylated [1]: 90
- KinomeScan VRK2 (VRK2): 91
- KinomeScan MAP3K15 (MAP3K15): 80
- KinomeScan NDR1 (NDR1): 100
- KinomeScan ASK1 (ASK1): 88
- KinomeScan KIT(L576P) (KIT(L576P)): 83
- KinomeScan ABL2 (ABL2): 99
- IC50 (PIK3C2A): > 10 µM
- KinomeScan NIM1 (NIM1): 100
- EC50 (PI3Kα): > 3 µM
- KinomeScan PIK3CA(C420R) (PIK3CA(C420R)): 4.5
- KinomeScan ERBB2 (ERBB2): 100
- KinomeScan SgK110 (SgK110): 100
- KinomeScan EPHA2 (EPHA2): 100
- KinomeScan CDC2L2 (CDC2L2): 100
- KinomeScan LKB1 (LKB1): 79
- KinomeScan RSK3(Kin.Dom.1-N-terminal) [2]: 100
- KinomeScan TNNI3K (TNNI3K): 95
- KinomeScan AURKA (AURKA): 93
- KinomeScan PIP5K1A (PIP5K1A): 84
- KinomeScan MTOR (MTOR): 28
- KinomeScan PIK3CA(E545K) (PIK3CA(E545K)): 6.4
- KinomeScan DAPK2 (DAPK2): 97
- KinomeScan EPHA3 (EPHA3): 86
- KinomeScan CAMK1G (CAMK1G): 94
- KinomeScan PKN1 (PKN1): 100
- KinomeScan CTK (CTK): 93
- KinomeScan MYLK (MYLK): 94
